Assay results as given in patent US10899815B2, “Compositions and methods of using islet neogenesis peptides and analogs thereof” (SHENZHEN HIGHTIDE BIOPHARMACEUTICAL, LTD., priority 2013, dated 2021).

Tests used:
pancreatic islets = assay: Glucose-stimulated insulin secretion (GSIS) of isolated islets; type: cell-based, Sprague-Dawley (SD) rats; conditions: rat islets, 12.0 mM glucose, 10 μg/mL peptide (GLP-1 100 nM), 60 min, FIG. 8
Procedure: The pancreases were procured from male adult Sprague-Dawley (SD) rats. After 7 days acclimation, the animals were sacrificed by cervical dislocation and the entire pancreas was removed and digested with collagenase to isolate islets. After digestion, islets were maintained at 37° C. in RPMI 1640 (Carlsbad, Calif., USA) pH 7.4, containing 10% (v/v) fetal calf serum, 1% penicillin/streptomycin, and 10 mM glucose in a humid atmosphere (5% CO2/95% O2), without the addition of any compound (control), or with the addition of 100 nM glucagon like peptide-1 (GLP-1); or 10 μg/mL Peptide 1, Peptide 12, or Peptide 16, as summarized in Table 4 below. Cultured islets were rinsed in Krebs-Ringer bicarbonate buffer (KRB), pH 7.4, previously gassed with a mixture CO2/O2 (5/95%), and pre-incubated in 1.0 ml KRB containing 0.5% (w/v) BSA and 1.5 mM glucose at 37° C. for 45 min. After this period, groups of 5 islets were incubated in 0.6 ml KRB with the addition of 1.5 or 12.0 mM glucose, with or without the addition of peptides for 60 min. At the end of the incubation period, aliquots of the medium were collected for insulin quantitation.

[1] = Peptide stability in human plasma; type: in vitro ADME; conditions: 100 μg/mL, 37° C., 0-120 min, FIG. 4
Procedure: (§1) The stability of peptides was also tested in mouse and human plasma. Briefly, a certain amount of peptides and eucatropine powder (positive control) was accurately weighed. Test compounds were dissolved in 50% methanol-water solution and diluted to 20 mg/mL, and eucatropine was dissolved in dimethylsulfoxide (DMSO) and diluted to 10 mM, as a stock solution. Eucatropine stock solution was diluted to 0.2 mM with DMSO as a working solution. A stop reagent was prepared containing 200 ng/mL midazolam and tolbutamide in acetonitrile. A volume of 300 μL of stop solution was added to each well of a 96-well deep-well plate placed on ice beforehand.
(§2) For the stability studies, peptides and eucatropine were spiked into plasma respectively, mixed well, and then 100 μL of each mixture solution was transferred into the pre-cooled stop reagent as 0 time point sample. The remaining mixtures were incubated in a 37° C. water bath with shaking at 100 rpm (n=2). The final incubation concentration was 1 μM for eucatropine and 100 μg/mL for all test compounds.
At desired time points, 100 μl, of incubation mixture was transferred to the stop reagent to precipitate proteins. […] The samples were analyzed by LC-MS/MS.
Slope was calculated by plotting the natural logarithm of the percentage or remaining amount of test compounds and time, and T12 was calculated in accordance with the following formula. […]

Pharmacokinetics in rat = type: in vivo, Sprague-Dawley (SD) rats; conditions: mouse and rat, 25 mg/kg
Procedure: After 7 days acclimation, male Sprague-Dawley (SD) rats weighing 210-250 g, or male C57BL/6 mice, weighing 19-24 g, in good health were used in the study. Peptide 1, Peptide 12 and Peptide 16 were dissolved in sterile normal saline and then they were injected via subcutaneous (sc) bolus or intravenous (iv) bolus at the dose level of 25 mg/kg. Three animals in each group were used for blood collection at the time point of 5 min, 15 min, 30 min, 1 h, 2 h, 4 h, 6 h, 8 h and 24 h post-dose. Blood samples (approximately 400 μL) were collected and placed into tubes containing EDTA-K2 and centrifuged at 8000 rpm for 6 minutes at 4° C. to separate plasma front the samples. The resulting plasma was stored frozen at −80° C. until being analyzed. Plasma concentrations of peptides were determined using tandem mass spectrometry (LC-MS/MS) analysis. A non-compartmental module of WinNonlin® Professional 5.2 (Pharsight; St. Louis, Mo.), was used to calculate PK parameters. The abbreviation AUC(0-t) represents area under the curve front the time of dosing to the time of the last observation, the AUC(0-∞) represents area under the curve from the time of dosing to infinity, and the Cmax represents maximum concentration detected.

[2] = Peptide stability in mouse plasma; type: in vitro ADME; conditions: 100 μg/mL, 37° C., LC-MS/MS, FIG. 3 and FIG. 5
Procedure: as §1, §2
At desired time points, 100 μl, of incubation mixture was transferred to the stop reagent to precipitate proteins. Samples were vortexed and centrifuged at RCF 5000-g for 10 minutes, and supernatant was transferred to a test plate. The samples were analyzed by LC-MS/MS.
Slope was calculated by plotting the natural logarithm of the percentage or remaining amount of test compounds and time, and T12 was calculated in accordance with the following formula.
For stability in mouse plasma, the incubation time was 0, 5, 15, 30 and 60 min for Peptide 1 and eucatropine, 0, 15, 30, 60, 120, 240 and 480 min for Peptide 12, Peptide 16 and Peptide 29.
In another stability study in mouse plasma, the incubation time was 0, 30, 60 and 120 min for Peptide 2 and eucatropine; 0, 30, 60, 120, 240 and 960 min for Peptide 52 and Peptide 54.

- PK properties (AUC and Cmax) compared to INGAP-PP (Pharmacokinetics in rat): marked improved PK properties
Substance: Ac-IGLHDPSHGTLPNGS-OH [Peptide 16, Ac-IGLHDPSHGTLPNGS-OH]
- glucose-stimulated insulin secretion versus islets without peptides (pancreatic islets): released significantly more insulin
- stability in human plasma [1]: good stability in human plasma and were significantly more stable than INGAP-PP
- stability in mouse plasma [2]: good stability in mouse plasma and were more stable than INGAP-PP
